# Measurements published in US11077214B2, “Multimodal CT/optical agents” (University Health Network, priority 2013, dated 2021).
# Test: In vitro photostability of ICG fluorescence at room temperature
# Assay type: physicochemical
# Details: 3 days at room temperature
# Procedure: The size of the liposome samples was measured using dynamic light scattering (DLS) (90Plus, Brookhaven, Holtsville, N.Y.). The iodine and ICG concentrations were determined using an absorbance assay at a wavelength of 245 nm for iodine and 785 nm for ICG (Cary 50 UV/VIS Spectrophotometer, Varian Inc., Palo Alto, Calif.). The lipid components of the liposome sample was analyzed using ultra performance liquid chromatography (UPLC, ACQUITY, Waters, Milford, Mass.) equipped with an evaporative light scattering detector (ELSD). The in vitro fluorescence measurements were performed using a 2D fluorescence imager (excitation/emission: 735/820 nm, CRI Maestro, Perkin Elmer, Waltham, Mass.).
# Free ICG diluted in water, a 1:10 ethanol/water mixture and a 0.5:10 iohexol/water mixture yielded only 8±2%, 3±1%, 7±2% of its original fluorescence, respectively. […] The photostability of the encapsulated ICG was investigated by incubating the liposome samples and the free ICG solutions (at 7 physiologically relevant concentrations ranging from 0.5 to 2.5 μg/mL) at room temperature over a 21-day period.
compound,measurement,setting,value
"CC1(C)C(/C=C/C=C/C=C/C=C2\N(CCCCS(=O)(=O)O)c3ccc4ccccc4c3C2(C)C)=[N+](CCCCS(=O)(=O)[O-])c2ccc3ccccc3c21 [Free ICG, indocyanine green]",retained original fluorescence signal,diluted in 0.5:10 iohexol/water mixture,7±2%
same,retained original fluorescence signal,diluted in 1:10 ethanol/water mixture,3±1%
same,retained original fluorescence signal,diluted in water,8±2%
